# US8455647B2, “6-aminoisoquinoline compounds” (Aerie Pharmaceuticals, Inc., priority 2005, dated 2013)
# Structures can show the parent of a compound that is named as a salt.
# Columns and labels:
# Type in all cases: in vivo
# [1] = tested on: eyes; test: Topical ocular composition (Example 212), neuroprotective agent; details: composition of Example 212 (0.50 wt %), as a drop 4 times per day
# Description: (§1) Topical pharmaceutical compositions for lowering intraocular pressure are prepared by conventional methods and formulated as follows: […]
# (§2) A compound according to this invention is used as the 6-aminoisoquinoline derivative. […]
# [2] = tested on: patient suffering from glaucoma; test: Topical ocular composition (Example 212) lowering intraocular pressure
# Description: Examples of such assays are described in the following reference, incorporated herein by reference: C. Liljebris, G. Selen, B. Resul, J. Sternschantz, and U. Hacksell, “Derivatives of 17-Phenyl-18,19,20-trinorprostaglandin F2α Isopropyl Ester: Potential Anti-glaucoma Agents”, Journal of Medicinal Chemistry, Vol. 38 (2) 1995, pp. 289-304.
# as §1, §2
# [3] = tested on: eyes; test: Topical ocular composition (Example 212), dry eye syndrome; details: composition of Example 212 (0.50 wt %), as a drop twice per day
# [4] = tested on: eyes; test: Topical ocular composition (Example 212), allergic symptoms
# [5] = tested on: eyes; test: Topical ocular composition (Example 212), hyperemia, redness and ocular irritation; details: composition of Example 212 (0.50 wt %), as a drop as needed
# [6] = composition of Example 212 (0.50 wt %), as a drop twice per day
# [7] = composition of Example 212/213 (0.50 wt %), as a drop twice a day or as needed
compound,measurement,setting,value
"N[C@@H](CSCC(C(=O)c1ccc(/C=C/C(=O)Nc2ccc3cnccc3c2)cc1)c1ccccc1)C(=O)O (stereo partly drawn) [Example E207, (2R)-2-amino-3-(3-(4-((E)-3-(isoquinolin-6-ylamino)-3-oxoprop-1-enyl)phenyl)-3-oxo-2-phenylpropylthio)propanoic acid]",neuroprotective agent,[1],serves as a neuroprotective agent
same,decrease of intraocular pressure,"[2]; composition of Example 212 (0.50 wt %), as a drop 4 times per day",substantially decreases intraocular pressure
"O=C(CCl)Nc1ccc2cnccc2c1 [Example E1, 2-chloro-N-(isoquinolin-6-yl) acetamide]",relief of dry eye syndrome,[3],relieves dry eye syndrome
same,decrease of allergic symptoms,[4]; [6],substantially decreases allergic symptoms
"O=C(Nc1ccncc1)c1ccc(C2CC2C(=O)Nc2ccc3cnccc3c2)cc1 (stereo not shown) [Example E118, 4-(2-(isoquinolin-6-ylcarbamoyl)cyclopropyl)-N-(pyridin-4-yl)benzamide]",decrease of intraocular pressure,[2]; [7],substantially decreases intraocular pressure
"O=C(Nc1ccc2cnccc2c1)OCc1ccccc1 [Example E87, benzylisoquinolin-6-ylcarbamate]",relief of dry eye syndrome,[3],relieves dry eye syndrome
same,decrease of allergic symptoms,[4]; [6],substantially decreases allergic symptoms
"CNC(=O)c1cccc(NCS(=O)(=O)Nc2ccc3cnccc3c2)c1 [Example E136, 3-((N-isoquinolin-6-ylsulfamoyl)methylamino)-N-methylbenzamide]",decrease of intraocular pressure,[2]; [6],substantially decreases intraocular pressure
"O=C(CN1CCOCC1)Nc1ccc2cnccc2c1 [Example E105, N-(isoquinolin-6-yl)-2-morpholinoacetamide]","decrease of hyperemia, redness and ocular irritation",[5],"substantially decreases hyperemia, redness and ocular irritation"
"O=C(NCc1ccccc1)Nc1ccc2cnccc2c1 [Example E88, 1-benzyl-3-(isoquinolin-6-yl)urea]",decrease of allergic symptoms,"[4]; composition of Example 212/213 (0.50 wt %), as a drop as needed",substantially decreases allergic symptoms
"NCC(=O)Nc1ccc2cnccc2c1 [Example E40, 2-amino-N-isoquinoline-6-yl-acetamide dihydrochloride]","decrease of hyperemia, redness and ocular irritation",[5],"substantially decreases hyperemia, redness and ocular irritation"
"O=C(CNCc1ccccc1)Nc1ccc2cnccc2c1 [Example E58, 2-(benzylamino)-N-(isoquinolin-6-yl)acetamide]",decrease of intraocular pressure,[2]; [6],substantially decreases intraocular pressure
"CNC(=O)c1cccc(NCC(=O)Nc2ccc3cnccc3c2Cl)c1 [Example E119b, 3-(2-(5-chloroisoquinolin-6-ylamino)-2-oxoethylamino)-N-methyl benzamide]",decrease of intraocular pressure,[2]; [7],substantially decreases intraocular pressure
